According to patent US6989435B2, “Compounds and methods to inhibit or augment an inflammatory response” (Cambridge University Technical Services Ltd., priority 1997, dated 2006):
Marks after values point to notes of the source that are not given here. Positions of bridges follow the written chain, without caps; N, C: chain ends. Non-standard residues stand in square brackets, D forms with d. Residues, ends and D or L forms follow the SMILES beside them. No end group written: not given here.

Columns and labels:
[1] = biological target: T1, Duffy Antigen Receptor for Chemokines (DARC) (Homo sapiens, UniProt Q16570); experiment: DARC binding: competition with 125I-labeled MCP-1 on red blood cells; details: for DUFFY SELECTIVITY: estimated ka for binding to red blood cells divided by average inhibitory ED50 versus each of the chemokines
T1 sequence (Q16570 1-336): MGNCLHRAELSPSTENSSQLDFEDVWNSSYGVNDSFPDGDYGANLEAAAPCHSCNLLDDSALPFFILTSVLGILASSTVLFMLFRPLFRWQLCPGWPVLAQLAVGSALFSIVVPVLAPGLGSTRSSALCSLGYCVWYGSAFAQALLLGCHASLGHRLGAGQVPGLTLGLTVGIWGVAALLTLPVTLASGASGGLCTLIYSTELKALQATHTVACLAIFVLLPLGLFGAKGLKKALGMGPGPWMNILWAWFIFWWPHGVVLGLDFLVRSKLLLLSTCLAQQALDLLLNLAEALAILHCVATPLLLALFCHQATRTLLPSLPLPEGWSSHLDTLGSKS

[2] = test system: chemokine-induced THP-1 migration (MCP-1, MIP1α, IL8, SDF1α); experiment: Trans-well THP-1 migration assay, across the chemokines tested; assay type: cell-based, human; details: for CC SPECIFICITY: Table 7, average inhibitory ED50 versus SDF1 and IL8 divided by average inhibitory ED50 versus MCP-1 and MIP1α; for selectivity ratio (CC versus CXC chemokines): >1 = greater inhibition of CC chemokines, <1 = of CXC chemokines
Protocol: To determine whether an agent inhibits a chemokine-induced activity, such as macrophage recruitment, varying amounts of the agent are mixed with cells in the presence of a known chemoattractant. […] Chemokine (such as MCP-1, MIP1α, IL8 or SDF-1α), at a concentration known to cause significant migration of THP-1 cells in the trans-well migration assay, is placed in the lower compartment (FIG. 1). […] After incubation, the cells are gently removed from the top of the filter with a pipette, 20 μl of 20 mM EDTA in simple PBS is added into each top well, and incubated for 20 minutes at 4° C. The filter is carefully flushed with media using a gentle flow, and removed. […] The media is carefully aspirated from each well, and the converted dye is solubilized by 20 μl of DMSO. Absorbance of converted dye is measured at a wavelength of 595 nm using an ELISA plate reader. The number of migrated cells in each well is then determined by interpolation of the standard curve (see also Imai et al., J. Biol. Chem., 272, 15036 (1997)). […] The framed filter was aligned with the holes in the corner of the filter frame and placed over the wells. Five×10^4 THP-1 cells in 25 μl of RPMI-1640 culture media were added to the upper compartment. Peptides were dissolved in Milli Q water and then serially diluted in culture medium. In most cases, the serially diluted peptides were added to the upper compartment of the chemotaxis chamber. […] After incubation, the cells were gently removed from the top of the filter with a pipette, 20 μl of 20 mM EDTA in PBS was added into each top well, and the mixture was incubated for 20 minutes at 4° C. The filter was then carefully flushed with media using a gentle flow, and removed. […] The media was carefully aspirated from each well, and the converted dye was solubilized by 20 μl of DMSO. Absorbance of converted dye was measured at a wavelength of 595 nm using an ELISA plate reader. […] Representative chemokines included a beta-chemokine (“CC”), MIP-1α, and two alpha-chemokines (“CXC”), IL-8 and SDF-1α. […]

[3] = test system: MCP-1 induced THP-1 migration; experiment: Trans-well THP-1 migration assay, MCP-1 as chemoattractant; assay type: cell-based, human; details: for IC50: derivatives of leu4ile11peptide 3, read-out: MCP-1 inhibitory activity in the THP-1 transwell assay
Protocol: (§1) FIG. 1 is a schematic of the trans-well migration assay. In most experiments, the peptide (wavy line) is added to the upper well with about 50,000 cells (O). The upper and lower wells are separated by a 5 μm or 8 μm pore size PVP-free membrane (- - - -). Chemokine (●) is added to the lower well. After 4 hours, the number of cells that have migrated through the membrane are measured (◯ in lower well).
To determine whether an agent inhibits a chemokine-induced activity, such as macrophage recruitment, varying amounts of the agent are mixed with cells in the presence of a known chemoattractant. For example, a range of known concentrations of an agent, e.g., a chemokine peptide, is incubated with a defined number (e.g., 10^4-10^6) of human THP-1 monocyte cells in individual wells of the top compartment of a trans-well plate. Chemokine (such as MCP-1, MIP1α, IL8 or SDF-1α), at a concentration known to cause significant migration of THP-1 cells in the trans-well migration assay, is placed in the lower compartment (FIG. 1). Cells are then incubated at 37° C. for a period sufficient to allow migration, e.g., 4 hours. After incubation, the cells are gently removed from the top of the filter with a pipette, 20 μl of 20 mM EDTA in simple PBS is added into each top well, and incubated for 20 minutes at 4° C. The filter is carefully flushed with media using a gentle flow, and removed. A standard curve consisting of a two-fold dilution series of THP-1 cells (in 29 μl) is prepared to accurately quantify the number of cells that have migrated. Migrated cells are stained with 3 μl of MTT stock dye solution which is added directly into each well (5 mg/ml in RPMI-1640 without phenol red, Sigma Chemical Co.) and incubated at 37° C. for 4 hours. The media is carefully aspirated from each well, and the converted dye is solubilized by 20 μl of DMSO. Absorbance of converted dye is measured at a wavelength of 595 nm using an ELISA plate reader. The number of migrated cells in each well is then determined by interpolation of the standard curve (see also Imai et al., J. Biol. Chem., 272, 15036 (1997)).
(§2) Any method suitable for counting cells can be used, for example, counting with a hemocytometer, incubation of the cells with MTT (see above), or FACS analysis. A negative control assay is also performed, using TGF-β or another non-chemokine chemoattractant (e.g., IL1β or TNFα). To assess whether the agent is cytotoxic, the same concentrations of agent are incubated with THP-1 cells. Agents which 1) are not cytotoxic at levels which inhibit migration, 2) are ineffective at inhibiting the negative control-induced migration, and 3) reduce or inhibit chemokine-induced THP-1 migration, are agents which fall within the scope of the invention.
(§3) For this assay, THP-1 cells were maintained at a density of 4×10^5 cells per ml in RPMI-1640 supplemented with 10% fetal calf serum+20 μM 2-mercaptoethanol. Chemotaxis was induced in a 96-well disposable chemotaxis chamber fitted with a […] polycarbonate filter (PVP free, ChemoTX, Neuroprobe Inc., Cabin John). Twenty-nine μl of chemoattractant (recombinant human chemokine; 50 ng/ml, i.e., 5.9 nM) or control (100 ng/ml TGFβ) was added to the lower compartment of each well. The framed filter was aligned with the holes in the corner of the filter frame and placed over the wells. Five×10^4 THP-1 cells in 25 μl of RPMI-1640 culture media were added to the upper compartment. Peptides were dissolved in Milli Q water and then serially diluted in culture medium. In most cases, the serially diluted peptides were added to the upper compartment of the chemotaxis chamber. The chamber was incubated at 37° C. in a humidified atmosphere of 5% CO2 for 4 hours.
After incubation, the cells were gently removed from the top of the filter with a pipette, 20 μl of 20 mM EDTA in PBS was added into each top well, and the mixture was incubated for 20 minutes at 4° C. The filter was then carefully flushed with media using a gentle flow, and removed. […]

[4] = test system: TGFβ1 induced THP-1 migration; experiment: Trans-well THP-1 migration assay, TGFβ1 as non-chemokine control chemoattractant; assay type: cell-based, human; details: Table 6; n.s. = no statistically significant inhibition, even at 100 μM
Protocol: as §2
as §3, with “In most cases, the serially diluted peptides were added to the upper compartment of the chemotaxis chamber. The chamber was incubated at 37° C. in a humidified atmosphere of 5% CO2 for 4 hours.” left out
After incubation, the cells were gently removed from the top of the filter with a pipette, 20 μl of 20 mM EDTA in PBS was added into each top well, and the mixture was incubated for 20 minutes at 4° C. […] A standard curve was prepared to accurately quantify the number of THP-1 cells that had migrated. […] Absorbance of converted dye was measured at a wavelength of 595 nm using an ELISA plate reader. The number of cells that had migrated in each well was determined by interpolation of the standard curve.
To investigate the receptor specificity of peptide 3 inhibition, the ED50 was determined for peptide 3(1-12)[MCP-1] […]

[5] = test system: IL8 induced THP-1 migration; experiment: Trans-well THP-1 migration assay, IL8 as chemoattractant; assay type: cell-based, human
Protocol: as §1
(§4) To determine whether an agent inhibits a chemokine-induced activity, such as macrophage recruitment, varying amounts of the agent are mixed with cells in the presence of a known chemoattractant. For example, a range of known concentrations of an agent, e.g., a chemokine peptide, is incubated with a defined number (e.g., 10^4-10^6) of human THP-1 monocyte cells in individual wells of the top compartment of a trans-well plate. […] A standard curve consisting of a two-fold dilution series of THP-1 cells (in 29 μl) is prepared to accurately quantify the number of cells that have migrated. […] Absorbance of converted dye is measured at a wavelength of 595 nm using an ELISA plate reader. The number of migrated cells in each well is then determined by interpolation of the standard curve (see also Imai et al., J. Biol. Chem., 272, 15036 (1997)). […]

[6] = test system: SDF-1α induced THP-1 migration; experiment: Trans-well THP-1 migration assay, SDF-1α as chemoattractant; assay type: cell-based, human
Protocol: as §1, §4

[7] = Table 6, n.s. = no statistically significant inhibition

## NCCCC[C@H](NC(=O)[C@H](CCC(N)=O)NC(=O)[C@@H](N)CCCCN)C(=O)O [KQK]
[1]
  Kd: > 50 µM

## CC[C@H](C)[C@H](NC(=O)[C@H](C)NC(=O)[C@H](CC(=O)O)NC(=O)[C@@H]1CCCN1C(=O)[C@H](CCC(N)=O)NC(=O)[C@H](C)N)C(=O)N[C@@H](CC(N)=O)C(=O)N[C@@H](C)C(=O)N1CCC[C@H]1C(=O)N[C@H](C(=O)N[C@H](C(=O)N[C@@H](CS)C(=O)N[C@@H](CS)C(=O)O)[C@@H](C)O)C(C)C [Peptide 1] (H-AQPDAINAPVTCC-OH)
[1]
  Kd: > 100 µM

## -CQVWKQKPDA C- ([dC][dQ][dV][dW][dK][dQ][dK][dP][dD][dA][dC]; disulfide 1-11) [CRD-Cys13pep3[3-12]]
[1]; Table 7
  DUFFY SELECTIVITY: 8.82

## APG [reference compound]
[2]
  inhibition of THP-1 cell migration induced by MCP-1, MIP1α, IL-8 and SDF1α, in words: None of these significantly inhibited

## CADPKQKWVQ [Peptide 3[3-12]]
[2]
  CC SPECIFICITY: 1.2
[1]; Table 7
  DUFFY SELECTIVITY: 1.21

## CLDPKKEWIQ [SEE]
[3]; [7]
  ED50 versus MCP1, THP-1 migration: n.s.
[2]
  specificity for the cognate chemokine over the other chemokines tested: > 100 fold
  CC SPECIFICITY: >100
[4]
  ED50 versus TGFβ1, THP-1 migration: n.s.
[5]; [7]
  ED50 versus IL8, THP-1 migration: n.s.
[6]; [7]
  ED50 versus SDF1α, THP-1 migration: n.s.

## CQVWKQKPDAC [LRD-Cys13leu4ile11pep3[3-12]]
[3]
  IC50: 0.2 to 0.4 µM
[1]; Table 7
  DUFFY SELECTIVITY: 4.59

## DYFETSSQCSKPGV [Pep2[MIP1α]]
[1]
  Kd: > 50 µM
[1]; Table 7, ka for binding to red blood cells divided by the ka for binding THP-1 cells
  DUFFY SELECTIVITY (peptide 2 family): >100^d

## EICADP [Peptide 3[1-6]]
[2]
  CC SPECIFICITY: 0.7

## EICADPKQKWIQ [Ile11peptide 3]
[2]
  selectivity ratio (CC versus CXC chemokines): 0.9
  CC SPECIFICITY: 0.9

## EICADPSEEWVQ [Ser7Glu8Glu9pep 3]
[2]
  CC SPECIFICITY: 1.6
[1]; Table 7
  DUFFY SELECTIVITY: 0.59

## EICADPSQKWVQ [Ser7peptide 3]
[2]
  selectivity ratio (CC versus CXC chemokines): 0.5
  CC SPECIFICITY: 0.5
[1]; Table 7
  DUFFY SELECTIVITY: 2.00

## EICLDPKQKWIQ [Leu4ile11peptide 3]
[3]
  concentrations inhibiting MCP1 induced migration: around 1 μM
  potency as an inhibitor of MCP-1 signaling relative to peptide 3(1-12)[MCP-1]: approximately 5 fold
  IC50: 1 to 5 µM
[2]
  potency as an inhibitor of CC chemokines relative to peptide 3(1-12)[MCP-1]: approximately 5 fold
  selectivity ratio (CC versus CXC chemokines): 2.0
  CC SPECIFICITY: 2.0
[1]
  DARC binding, in words: essentially no DARC binding capacity

## EICLDPKQKWVQ [Leu4peptide 3]
[2]
  increase in potency as an inhibitor of CXC chemokines compared with peptide 3(1-12)[MCP-1]: approximately 4 fold
  selectivity ratio (CC versus CXC chemokines): 0.37
  CC SPECIFICITY: 0.4

## GGR [reference compound]
[2]
  inhibition of THP-1 cell migration induced by MCP-1, MIP1α, IL-8 and SDF1α, in words: None of these significantly inhibited

## KEN [cognate tripeptide from IL8]
[2]
  CC SPECIFICITY: <0.1
[5]; THP-1 migration
  inhibition of IL8, in words: specific and potent inhibitor

## KLK [cognate tripeptide from SDF1]
[2]
  CC SPECIFICITY: <0.1
[6]; THP-1 migration
  inhibition of SDF1, in words: specific and potent inhibitor

## KQKWVQ [Peptide 3[7-12]]
[2]
  selectivity ratio (CC versus CXC chemokines): 1.1
  CC SPECIFICITY: 1.0
[1]; Table 7
  DUFFY SELECTIVITY: 2.94
[1]; estimated ka for association with DARC divided by the ED50 for biological activity
  DARC specificity ratio / Duffy selectivity: about 3.0

## Leu4ile11peptide 3(3-12)[MCP-1]: leu4ile11 variant of peptide 3(3-12)[MCP-1] (CLDPKKEWIQ)
[2]; in words
  affinity relative to peptide 3(1-12)[MCP-1]: higher affinity peptide analog

## RGD [reference compound]
[2]
  inhibition of THP-1 cell migration induced by MCP-1, MIP1α, IL-8 and SDF1α, in words: None of these significantly inhibited

## TTT [reference compound]
[2]
  inhibition of THP-1 cell migration induced by MCP-1, MIP1α, IL-8 and SDF1α, in words: None of these significantly inhibited

## WIQ
[2]
  CC SPECIFICITY: 1.0
